{"source": "patent US10167262B2", "about": "“Herbicidal substituted 3-arylpyrazoles” (FMC CORPORATION, priority 2014, dated 2019)", "assay_in_all_cases": "Test A pre-/postemergence greenhouse herbicide test, visual injury rating 0-100", "type_in_all_cases": "in vivo", "key": {"[1]": {"system": "pigweed (Amaranthus retroflexus)", "from_the_text": "(§1) Seeds of plant species selected from barnyardgrass (Echinochloa crus-galli), large (Lg) crabgrass (Digitaria sanguinalis), giant foxtail (Setaria faberii), morningglory (Ipomoea spp.), pigweed (Amaranthus retroflexus), velvetleaf (Abutilon theophrasti), wheat (Triticum aestivum), and corn (Zea mays) were planted into a blend of loam soil and sand and treated preemergence with a directed soil spray using test chemicals formulated in a non-phytotoxic solvent mixture which included a surfactant. At the same time these species were also treated with postemergence applications of test chemicals formulated in the same manner. Plants ranged in height from 2 to 10 cm and were in the one- to two-leaf stage for the postemergence treatment. Treated plants and untreated controls were maintained in a greenhouse for approximately 10 days, after which time all treated plants were compared to untreated controls and visually evaluated for injury. Plant response ratings, summarized in Table A, are based on a 0 to 100 scale where 0 is no effect and 100 is complete control. A dash (-) response means no test result."}, "corn (Zea mays)": {"system": "corn (Zea mays)", "from_the_text": "as §1"}, "[2]": {"system": "velvetleaf (Abutilon theophrasti)", "from_the_text": "as §1"}, "[3]": {"system": "giant foxtail (Setaria faberii)", "from_the_text": "as §1"}, "[4]": {"system": "barnyardgrass (Echinochloa crus-galli)", "from_the_text": "as §1"}, "[5]": {"system": "large (Lg) crabgrass (Digitaria sanguinalis)", "from_the_text": "as §1"}, "[6]": {"system": "morningglory (Ipomoea spp.)", "from_the_text": "as §1"}, "[7]": {"system": "wheat (Triticum aestivum)", "from_the_text": "as §1"}}, "data": [{"molecule": "CCn1cc(C(=NNc2ccccc2)c2ccccc2)c(-c2cc(Cl)cc(Cl)c2)n1", "note": "[Compound 36]", "values": [{"measurement": "Plant response rating (0 to 100 scale), Pigweed", "setting": "[1]; Postemergence, 125 g ai/ha", "value": 30}, {"measurement": "Plant response rating (0 to 100 scale), Pigweed", "setting": "[1]; Postemergence, 500 g ai/ha", "value": 80}, {"measurement": "Pigweed plant response rating (0 = no effect, 100 = complete control)", "setting": "[1]; Preemergence, 125 g ai/ha", "value": 0}, {"measurement": "Plant response rating (0 to 100 scale), Pigweed", "setting": "[1]; Preemergence, 500 g ai/ha", "value": 70}, {"measurement": "Plant response rating (0 to 100 scale), Corn", "setting": "corn (Zea mays); Postemergence, 125 g ai/ha", "value": 0}, {"measurement": "Plant response rating (0 to 100 scale), Corn", "setting": "corn (Zea mays); Postemergence, 500 g ai/ha", "value": 0}, {"measurement": "Corn plant response rating (0 = no effect, 100 = complete control)", "setting": "corn (Zea mays); Preemergence, 125 g ai/ha", "value": 0}, {"measurement": "Plant response rating (0 to 100 scale), Corn", "setting": "corn (Zea mays); Preemergence, 500 g ai/ha", "value": 0}, {"measurement": "Plant response rating (0 to 100 scale), Velvetleaf", "setting": "[2]; Postemergence, 125 g ai/ha", "value": 70}, {"measurement": "Plant response rating (0 to 100 scale), Velvetleaf", "setting": "[2]; Postemergence, 500 g ai/ha", "value": 90}, {"measurement": "Velvetleaf plant response rating (0 = no effect, 100 = complete control)", "setting": "[2]; Preemergence, 125 g ai/ha", "value": 20}, {"measurement": "Plant response rating (0 to 100 scale), Velvetleaf", "setting": "[2]; Preemergence, 500 g ai/ha", "value": 20}, {"measurement": "Plant response rating (0 to 100 scale), Foxtail, Giant", "setting": "[3]; Postemergence, 125 g ai/ha", "value": 0}, {"measurement": "Plant response rating (0 to 100 scale), Foxtail, Giant", "setting": "[3]; Postemergence, 500 g ai/ha", "value": 0}, {"measurement": "Foxtail, Giant plant response rating (0 = no effect, 100 = complete control)", "setting": "[3]; Preemergence, 125 g ai/ha", "value": 0}, {"measurement": "Plant response rating (0 to 100 scale), Foxtail, Giant", "setting": "[3]; Preemergence, 500 g ai/ha", "value": 0}, {"measurement": "Plant response rating (0 to 100 scale), Barnyardgrass", "setting": "[4]; Postemergence, 125 g ai/ha", "value": 0}, {"measurement": "Plant response rating (0 to 100 scale), Barnyardgrass", "setting": "[4]; Postemergence, 500 g ai/ha", "value": 0}, {"measurement": "Barnyardgrass plant response rating (0 = no effect, 100 = complete control)", "setting": "[4]; Preemergence, 125 g ai/ha", "value": 0}, {"measurement": "Plant response rating (0 to 100 scale), Barnyardgrass", "setting": "[4]; Preemergence, 500 g ai/ha", "value": 0}, {"measurement": "Plant response rating (0 to 100 scale), Crabgrass, Large", "setting": "[5]; Postemergence, 125 g ai/ha", "value": 0}, {"measurement": "Plant response rating (0 to 100 scale), Crabgrass, Large", "setting": "[5]; Postemergence, 500 g ai/ha", "value": 0}, {"measurement": "Crabgrass, Large plant response rating (0 = no effect, 100 = complete control)", "setting": "[5]; Preemergence, 125 g ai/ha", "value": 0}, {"measurement": "Plant response rating (0 to 100 scale), Crabgrass, Large", "setting": "[5]; Preemergence, 500 g ai/ha", "value": 0}, {"measurement": "Plant response rating (0 to 100 scale), Morningglory", "setting": "[6]; Postemergence, 125 g ai/ha", "value": 0}, {"measurement": "Plant response rating (0 to 100 scale), Morningglory", "setting": "[6]; Postemergence, 500 g ai/ha", "value": 0}, {"measurement": "Morningglory plant response rating (0 = no effect, 100 = complete control)", "setting": "[6]; Preemergence, 125 g ai/ha", "value": 0}, {"measurement": "Plant response rating (0 to 100 scale), Morningglory", "setting": "[6]; Preemergence, 500 g ai/ha", "value": 0}, {"measurement": "Plant response rating (0 to 100 scale), Wheat", "setting": "[7]; Postemergence, 125 g ai/ha", "value": 0}, {"measurement": "Plant response rating (0 to 100 scale), Wheat", "setting": "[7]; Postemergence, 500 g ai/ha", "value": 0}, {"measurement": "Wheat plant response rating (0 = no effect, 100 = complete control)", "setting": "[7]; Preemergence, 125 g ai/ha", "value": 0}, {"measurement": "Plant response rating (0 to 100 scale), Wheat", "setting": "[7]; Preemergence, 500 g ai/ha", "value": 0}]}, {"molecule": "O=C(c1ccccc1)c1cn(CC(F)F)nc1-c1cc(F)cc(Cl)c1", "note": "[Compound 40]", "values": [{"measurement": "Plant response rating (0 to 100 scale), Pigweed", "setting": "[1]; Postemergence, 1000 g ai/ha", "value": 40}, {"measurement": "Plant response rating (0 to 100 scale), Pigweed", "setting": "[1]; Preemergence, 1000 g ai/ha", "value": 0}, {"measurement": "Plant response rating (0 to 100 scale), Corn", "setting": "corn (Zea mays); Postemergence, 1000 g ai/ha", "value": 0}, {"measurement": "Plant response rating (0 to 100 scale), Corn", "setting": "corn (Zea mays); Preemergence, 1000 g ai/ha", "value": 0}, {"measurement": "Plant response rating (0 to 100 scale), Velvetleaf", "setting": "[2]; Postemergence, 1000 g ai/ha", "value": 0}, {"measurement": "Plant response rating (0 to 100 scale), Velvetleaf", "setting": "[2]; Preemergence, 1000 g ai/ha", "value": 0}, {"measurement": "Plant response rating (0 to 100 scale), Foxtail, Giant", "setting": "[3]; Postemergence, 1000 g ai/ha", "value": 0}, {"measurement": "Plant response rating (0 to 100 scale), Foxtail, Giant", "setting": "[3]; Preemergence, 1000 g ai/ha", "value": 0}, {"measurement": "Plant response rating (0 to 100 scale), Barnyardgrass", "setting": "[4]; Postemergence, 1000 g ai/ha", "value": 0}, {"measurement": "Plant response rating (0 to 100 scale), Barnyardgrass", "setting": "[4]; Preemergence, 1000 g ai/ha", "value": 0}, {"measurement": "Plant response rating (0 to 100 scale), Crabgrass, Large", "setting": "[5]; Postemergence, 1000 g ai/ha", "value": 0}, {"measurement": "Plant response rating (0 to 100 scale), Crabgrass, Large", "setting": "[5]; Preemergence, 1000 g ai/ha", "value": 0}, {"measurement": "Plant response rating (0 to 100 scale), Morningglory", "setting": "[6]; Postemergence, 1000 g ai/ha", "value": 0}, {"measurement": "Plant response rating (0 to 100 scale), Morningglory", "setting": "[6]; Preemergence, 1000 g ai/ha", "value": 0}, {"measurement": "Plant response rating (0 to 100 scale), Wheat", "setting": "[7]; Postemergence, 1000 g ai/ha", "value": 0}, {"measurement": "Plant response rating (0 to 100 scale), Wheat", "setting": "[7]; Preemergence, 1000 g ai/ha", "value": 0}]}, {"molecule": "ON=C(c1ccccc1)c1c[nH]nc1-c1cc(Br)cc(Br)c1", "note": "[Compound 49]", "values": [{"measurement": "Plant response rating (0 to 100 scale), Pigweed", "setting": "[1]; Postemergence, 1000 g ai/ha", "value": 90}, {"measurement": "Plant response rating (0 to 100 scale), Pigweed", "setting": "[1]; Preemergence, 1000 g ai/ha", "value": 80}, {"measurement": "Plant response rating (0 to 100 scale), Corn", "setting": "corn (Zea mays); Postemergence, 1000 g ai/ha", "value": 0}, {"measurement": "Plant response rating (0 to 100 scale), Corn", "setting": "corn (Zea mays); Preemergence, 1000 g ai/ha", "value": 0}, {"measurement": "Plant response rating (0 to 100 scale), Velvetleaf", "setting": "[2]; Postemergence, 1000 g ai/ha", "value": 80}, {"measurement": "Plant response rating (0 to 100 scale), Velvetleaf", "setting": "[2]; Preemergence, 1000 g ai/ha", "value": 0}, {"measurement": "Plant response rating (0 to 100 scale), Foxtail, Giant", "setting": "[3]; Postemergence, 1000 g ai/ha", "value": 0}, {"measurement": "Plant response rating (0 to 100 scale), Foxtail, Giant", "setting": "[3]; Preemergence, 1000 g ai/ha", "value": 10}, {"measurement": "Plant response rating (0 to 100 scale), Barnyardgrass", "setting": "[4]; Postemergence, 1000 g ai/ha", "value": 0}, {"measurement": "Plant response rating (0 to 100 scale), Barnyardgrass", "setting": "[4]; Preemergence, 1000 g ai/ha", "value": 0}, {"measurement": "Plant response rating (0 to 100 scale), Crabgrass, Large", "setting": "[5]; Postemergence, 1000 g ai/ha", "value": 0}, {"measurement": "Plant response rating (0 to 100 scale), Crabgrass, Large", "setting": "[5]; Preemergence, 1000 g ai/ha", "value": 0}, {"measurement": "Plant response rating (0 to 100 scale), Morningglory", "setting": "[6]; Postemergence, 1000 g ai/ha", "value": 0}, {"measurement": "Plant response rating (0 to 100 scale), Morningglory", "setting": "[6]; Preemergence, 1000 g ai/ha", "value": 0}, {"measurement": "Plant response rating (0 to 100 scale), Wheat", "setting": "[7]; Postemergence, 1000 g ai/ha", "value": 0}, {"measurement": "Plant response rating (0 to 100 scale), Wheat", "setting": "[7]; Preemergence, 1000 g ai/ha", "value": 0}]}, {"molecule": "Clc1cc(Cl)cc(-c2n[nH]cc2C(=NN2CCCCC2)c2ccccc2)c1", "note": "[Compound 51]", "values": [{"measurement": "Plant response rating (0 to 100 scale), Pigweed", "setting": "[1]; Postemergence, 1000 g ai/ha", "value": 90}, {"measurement": "Plant response rating (0 to 100 scale), Pigweed", "setting": "[1]; Preemergence, 1000 g ai/ha", "value": 100}, {"measurement": "Plant response rating (0 to 100 scale), Corn", "setting": "corn (Zea mays); Postemergence, 1000 g ai/ha", "value": 0}, {"measurement": "Plant response rating (0 to 100 scale), Corn", "setting": "corn (Zea mays); Preemergence, 1000 g ai/ha", "value": 0}, {"measurement": "Plant response rating (0 to 100 scale), Velvetleaf", "setting": "[2]; Postemergence, 1000 g ai/ha", "value": 90}, {"measurement": "Plant response rating (0 to 100 scale), Velvetleaf", "setting": "[2]; Preemergence, 1000 g ai/ha", "value": 90}, {"measurement": "Plant response rating (0 to 100 scale), Foxtail, Giant", "setting": "[3]; Postemergence, 1000 g ai/ha", "value": 0}, {"measurement": "Plant response rating (0 to 100 scale), Foxtail, Giant", "setting": "[3]; Preemergence, 1000 g ai/ha", "value": 0}, {"measurement": "Plant response rating (0 to 100 scale), Barnyardgrass", "setting": "[4]; Postemergence, 1000 g ai/ha", "value": 0}, {"measurement": "Plant response rating (0 to 100 scale), Barnyardgrass", "setting": "[4]; Preemergence, 1000 g ai/ha", "value": 0}, {"measurement": "Plant response rating (0 to 100 scale), Crabgrass, Large", "setting": "[5]; Postemergence, 1000 g ai/ha", "value": 0}, {"measurement": "Plant response rating (0 to 100 scale), Crabgrass, Large", "setting": "[5]; Preemergence, 1000 g ai/ha", "value": 0}, {"measurement": "Plant response rating (0 to 100 scale), Morningglory", "setting": "[6]; Postemergence, 1000 g ai/ha", "value": 0}, {"measurement": "Plant response rating (0 to 100 scale), Morningglory", "setting": "[6]; Preemergence, 1000 g ai/ha", "value": 0}, {"measurement": "Plant response rating (0 to 100 scale), Wheat", "setting": "[7]; Postemergence, 1000 g ai/ha", "value": 0}, {"measurement": "Plant response rating (0 to 100 scale), Wheat", "setting": "[7]; Preemergence, 1000 g ai/ha", "value": 0}]}]}
